Data reported in article PMC11432795, “Mutagenesis of the Peptide Inhibitor of ASIC3 Channel Introduces Binding to Thumb Domain of ASIC1a but Reduces Analgesic Activity” (Marine Drugs, 2024).
Positions of bridges follow the written chain, without caps; N, C: chain ends. Residues, ends and D or L forms follow the SMILES beside them. No end group written: not given here.

Columns and labels:
rat ASIC3 channel = molecular target: T1, rat ASIC3 channel (Rattus norvegicus, UniProt O35240); assay: Two-electrode voltage clamp, rat ASIC3 in X. laevis oocytes; format: cell-based; conditions: pH 5.5 stimulus, mean ± S.E.M., 5 cells
T1 construct: expressed in transfected cells; host or cells: Xenopus laevis oocytes injected with mRNA made from pcDNA3.1-rat ASIC3
T1 sequence (O35240 1-533): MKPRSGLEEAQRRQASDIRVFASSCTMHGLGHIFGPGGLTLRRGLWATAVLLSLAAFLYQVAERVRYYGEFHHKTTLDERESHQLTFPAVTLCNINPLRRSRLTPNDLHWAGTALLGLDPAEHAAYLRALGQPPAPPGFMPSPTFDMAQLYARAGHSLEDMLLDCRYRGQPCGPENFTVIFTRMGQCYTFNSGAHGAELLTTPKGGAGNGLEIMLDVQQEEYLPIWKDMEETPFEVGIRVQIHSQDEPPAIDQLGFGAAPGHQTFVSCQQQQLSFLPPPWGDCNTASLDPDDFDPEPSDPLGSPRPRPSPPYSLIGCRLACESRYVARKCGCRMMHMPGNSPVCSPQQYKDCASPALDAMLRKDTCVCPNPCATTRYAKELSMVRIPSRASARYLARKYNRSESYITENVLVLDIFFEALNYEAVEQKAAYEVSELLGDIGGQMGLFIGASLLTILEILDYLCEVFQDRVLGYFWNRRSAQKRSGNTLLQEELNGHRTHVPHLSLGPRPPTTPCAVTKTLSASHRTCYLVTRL
Protocol: (§1) Figure 3 The effect of mutant peptides S16K and A23K on rat ASIC1a and ASIC3 channels. […] (B) Dose–response curves for the inhibitory effect of mutant peptides on ASIC1a. Each data point represents data from 5 cells. (C) Representative current traces of Ugr9-1, S16K, and A23K at a concentration of 12.5 µM on ASIC3. […] Each point represents data from 5 cells. The depicted currents were induced by a pH 5.5 stimulus following a conditioning pH of 7.4, with peptides applied for 30 s before the pH stimulus. The holding potential (Vh) was −50 mV, and the time interval between applications ranged from 1 to 2 min. Data are presented as mean ± S.E.M.
(§2) A small portion of the ovary was isolated from frogs under anesthesia induced by a 0.17% solution of procaine methanesulphonate (MS222) (Sigma), followed by treatment with collagenase (1 mg/mL) at room temperature for 2 h. Oocytes at stages IV and V, devoid of follicular membranes, were transferred to ND-96 medium (containing 96 mM NaCl, 5 mM HEPES, 2 mM KCl, 1.8 mM CaCl2, 1 mM MgCl2, pH 7.4). mRNA synthesis was performed from pcDNA3.1 vectors (Invitrogen, Carlsbad, CA, USA) containing the rat ASIC3 gene, as well as pCI vectors containing genes for rat ASIC1a, its mutant analogues, and ASIC1b. mRNA (2.5–10 ng) was then injected into the oocytes. For the ASIC1a/3 heteromeric channels, the mRNA encoding the ASIC1a and ASIC3 subunits were injected in a 1:5 ratio, respectively. Subsequently, the oocytes were incubated for 2–3 days at a temperature of 17–19 °C in ND96 medium supplemented with gentamicin and streptomycin (20 µg/mL each).
(§3) Whole-cell electrophysiological recordings of ASIC channels were conducted using a two-electrode voltage-clamp setup. Microelectrodes were filled with 3 M KCl. Recordings from oocytes were carried out at a holding potential of −50 mV, with data filtered at 10 Hz and sampled at a rate of 100 Hz using an L780M ADC (LCard, Moscow, Russia). The synchronized delivery of solutions into the chamber and recording of electrophysiological results were carried out using in-house software v.2. Activation of ASIC channels occurred through rapid pH changes in the solution, achieved by replacing the working solution in the chamber with ND96-based solutions at varying pH levels. Specifically, HEPES was substituted with 10 mM MES for pH 5.5–6.5 and MOPS for pH 6.7–7.0.
(§4) Fresh peptide solutions were meticulously prepared in ND96 buffer with a pH of 7.43 immediately before experiments, with strict control over the pH levels. Peptides were applied for 30 s at a conditioning pH of 7.43 before acid stimulation of the channel. The interval between applications was maintained at a minimum of 1.5 to 2 min.
(§5) Electrophysiological data analysis was conducted using OriginPro 2018 software (OriginLab, Northampton, MA, USA). Dose–response relationships for Ugr9a-1, S16K, and A23K peptides were fitted using a Hill function: F1(x) = A − A/(1 + (x/IC50)^nH), where F1(x) represents the amplitude of the current at concentration x of the peptide, A is the maximum amplitude of the current, IC50 is the half-maximum inhibitory concentration of the peptide, and nH is the Hill coefficient.

rat ASIC1a channel = molecular target: T2, rat ASIC1a channel (Rattus norvegicus, UniProt P55926); assay: Two-electrode voltage clamp, rat ASIC1a in X. laevis oocytes; format: cell-based; conditions: pH 5.5 stimulus, mean ± S.E.M., 5 cells
T2 construct: expressed in transfected cells; host or cells: Xenopus laevis oocytes injected with mRNA made from a pCI-rASIC1a plasmid
T2 sequence (P55926 1-526): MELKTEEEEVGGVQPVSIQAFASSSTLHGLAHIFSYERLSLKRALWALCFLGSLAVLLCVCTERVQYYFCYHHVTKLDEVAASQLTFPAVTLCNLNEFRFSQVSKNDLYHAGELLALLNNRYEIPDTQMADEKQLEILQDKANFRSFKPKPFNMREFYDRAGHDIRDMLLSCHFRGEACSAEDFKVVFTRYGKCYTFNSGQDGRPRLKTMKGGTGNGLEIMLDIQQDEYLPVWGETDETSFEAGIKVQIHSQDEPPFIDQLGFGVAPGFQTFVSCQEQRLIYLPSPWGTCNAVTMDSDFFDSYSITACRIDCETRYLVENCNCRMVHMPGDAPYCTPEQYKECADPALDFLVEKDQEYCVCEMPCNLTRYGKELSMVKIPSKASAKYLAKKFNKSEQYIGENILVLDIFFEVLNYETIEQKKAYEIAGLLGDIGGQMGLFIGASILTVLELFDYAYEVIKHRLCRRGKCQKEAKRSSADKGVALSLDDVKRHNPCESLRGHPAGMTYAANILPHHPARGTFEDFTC
Protocol: as §1, §2, §3, §4, §5

[1] = cited from earlier work; for analgesic effect on thermal hypersensitivity caused by inflammation: ref [31],[32]; for analgesic effects: ref [16],[17]
From the text: Selective ligands targeting specific ASIC isoforms are invaluable for structural and functional investigations. Peptide ligands sourced from various animal venoms have emerged as such tools. […] Bot ... || The 29-amino acid peptide Ugr9a-1, isolated from the venom of the northern sea anemone Urticina grebelnyi, represents a structural class of toxins termed “boundless β-hairpin”. […] While the significant involvement of ASIC3 channels in acid-induced, chronic neuropathic and inflammatory pain has been extensively reported, the role of ASIC1a remains less clear.

[2] = molecular target: rat ASIC3 channel (homomeric) (rat) (UniProt O35240)
[3] = system: ASIC1a D355A mutant channel; conditions: ref [23],[28]; cited from earlier work
From the text: (§6) Electrophysiological experimentation confirmed the activity of recombinant S16K and A23K mutants against rat ASIC1a channels. […] This fact was in good agreement with molecular docking results that predicted tighter interactions of the lysine residue at position 23 with Asp355 and Glu357 residues of the channel. […] To confirm the critical role of th ...

[4] = system: ASIC1a E357A mutant channel; conditions: ref [23],[28]; cited from earlier work
From the text: as §6

ASIC1a channel = conditions: cited from earlier work
From the text: Selective ligands targeting specific ASIC isoforms are invaluable for structural and functional investigations. Peptide ligands sourced from various animal venoms have emerged as such tools. […] Bot ...

Q: For `CC[C@H](C)[C@H](N)C(=O)N[C@@H](CO)C(=O)N[C@H](C(=O)N[C@@H](CC(=O)O)C(=O)N1CCC[C@H]1C(=O)N1CCC[C@H]1C(=O)N[C@H]1CSSC[C@@H]2NC(=O)[C@H](CC(N)=O)NC(=O)CNC(=O)[C@H](CCCCN)NC(=O)CNC(=O)[C@H](CC(=O)O)NC(=O)[C@H](CCCNC(=N)N)NC(=O)[C@H](Cc3c[nH]cn3)NC(=O)[C@H](Cc3ccc(O)cc3)NC(=O)[C@H](CSSC[C@@H](C(=O)NCC(=O)N[C@@H](C)C(=O)N[C@H](C(=O)O)C(C)C)NC(=O)CNC(=O)[C@H](Cc3ccc(O)cc3)NC(=O)[C@H](C)NC(=O)[C@H](CC(=O)O)NC(=O)[C@H](Cc3ccc(O)cc3)NC(=O)[C@H](C(C)C)NC2=O)NC(=O)[C@H](Cc2ccccc2)NC(=O)[C@H](CCCNC(=N)N)NC1=O)[C@@H](C)CC` [S16K] (H-ISIDPPCRFCYHRDGKGNCVYDAYGCGAV-OH; disulfide 7-19, 10-26), which nH (rat ASIC3 channel; inhibition of rat ASIC3, conditioning pH 7.4) is on record?
A: 2.16 ± 0.24

Q: And the IC50 (rat ASIC3 channel; rat ASIC3, X. laevis oocytes, TEVC, Vh −50 mV, conditioning pH 7.4, peptide 30 s before stimulus)?
A: 35.8 ± 4.03 µM

Q: And the “Hill slope (nH)” value (rat ASIC1a channel; inhibition of rat ASIC1a, conditioning pH 7.4)?
A: 2.86 ± 0.09

Q: And the IC50 (rat ASIC1a channel; rat ASIC1a, X. laevis oocytes, TEVC, Vh −50 mV, conditioning pH 7.4, peptide 30 s before stimulus, read-out: half-maximal inhibitory concentration (IC50))?
A: 22.7 ± 0.42 µM

Q: For `O=C(O)C[C@H](C(=O)O)[C@@H](OC(=O)C1=Cc2cc(O)c(O)cc2[C@@H](c2ccc(O)c(O)c2)[C@@H]1C(=O)O[C@@H](C(=O)O)[C@H](CC(=O)O)C(=O)O)C(=O)O` [sevanol], which “analgesic effect on thermal hypersensitivity caused by inflammation” value [1] is on record?
A: substantial analgesic effects

Q: For “Ugr9a-1 peptide from the venom of the sea anemone Urticina grebelnyi”, which IC50 of inhibition of the pH 5.5-evoked current of rASIC3, two-electrode voltage clamp on X. laevis oocytes [2] is on record?
A: 14.2 µM

Q: For `COc1cc2c(cc1O)[C@H](Cc1ccc(Oc3cc(C[C@@H]4NCCc5cc(OC)c(O)cc54)ccc3O)cc1)NCC2` [lindoldhamine], which “analgesic effect on thermal hypersensitivity caused by inflammation” value [1] is on record?
A: substantial analgesic effects

Q: Which analgesic effects [1] does the source give for “Mamb-1 (LKCYQHGKVVTCHRDMKFCYHNTGMPFRNLKLILQGCSSSCSETENNKCCSTDRCNK; ends and bridges not checked; cysteine pairing not given here; UniProt P0DKR6 22-78, looked up)” here?
A: demonstrate analgesic effects

Q: And the “effect of D355A channel mutation on inhibitory potential” value [3]?
A: did not substantially alter the inhibitory potential

Q: And the “effect of E357A channel mutation on inhibitory potential” value [4]?
A: did not substantially alter the inhibitory potential

Q: What about the “modulation of ASIC1-containing channels” value (ASIC1a channel; ref [14],[15]) of the same molecule?
A: negatively modulates ASIC1-containing channels but by stabilizing the closed state

Q: With “PcTx1 (EDCIPKWKGCVNRHGDCCEGLECWKRRRSFEVCVPKTPKT; ends and bridges not checked; cysteine pairing not given here; UniProt P60514 1-40, looked up)” as the molecule, how does the analgesic effects [1] read?
A: demonstrate analgesic effects

Q: And the “modulation of ASIC1a” value (ASIC1a channel; ref [11],[12],[13])?
A: selectively modulates ASIC1a and ASIC1a-containing channels by stabilizing the desensitized state
